Experimental data: US12723063B2, “GIPR-agonist compounds” (Eli Lilly and Company, priority 2019, dated 2026)
*1 amine or outer side, *2 acyl side, *3 side chain or, on linkers, in order; H or OH if unused. Where a SMILES comes first, the peptide text is derived from it. Side-chain parts run from the residue outwards. [ ]: non-standard residue; d: D form. The star is where a group is joined. C20 diacid = O=C(O)CCCCCCCCCCCCCCCCCCC(=O)*; αMePhe(2-F) = C[C@](N)(Cc1ccccc1F)C(=O)O; γGlu = O=C(O)[C@H](CCC(=O)[*:2])N[*:1]; αMeF = C[C@](N)(Cc1ccccc1)C(=O)O; 4Pal = N[C@@H](Cc1ccncc1)C(=O)O; αMeL = CC(C)C[C@](C)(N)C(=O)O; AEEA = NCCOCCOCC(=O)O; Aib = CC(C)(N)C(=O)O

Tests used:
[1] = target: T1, human GLP-1R (Homo sapiens, UniProt P43220); assay: [125I]-GLP-1 binding, SPA with WGA beads, 0.1% bacitracin; settings: geometric mean, read-out: hGLP1R Ki
T1 construct: expressed in transfected cells; crude membranes
How it was run: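 Binding buffer was 25 mM HEPES pH 7.4 with 2.5 mM CaCl2, 1 mM MgCl2, 0.1% (w/v) bacitracin, 0.003% Tween-20 and EDTA-free protease inhibitors. Four-parameter regression gave IC50, converted to Ki (geometric mean, SEM, n independent days).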

[2] = target: T2, human GIPR (Homo sapiens, UniProt P48546); assay: [125I]-GIP binding, SPA with WGA beads, 0.1% bacitracin; settings: geometric mean, read-out: hGIPR Ki
T2 construct: expressed in transfected cells; crude membranes
T2 sequence (P48546 22-466): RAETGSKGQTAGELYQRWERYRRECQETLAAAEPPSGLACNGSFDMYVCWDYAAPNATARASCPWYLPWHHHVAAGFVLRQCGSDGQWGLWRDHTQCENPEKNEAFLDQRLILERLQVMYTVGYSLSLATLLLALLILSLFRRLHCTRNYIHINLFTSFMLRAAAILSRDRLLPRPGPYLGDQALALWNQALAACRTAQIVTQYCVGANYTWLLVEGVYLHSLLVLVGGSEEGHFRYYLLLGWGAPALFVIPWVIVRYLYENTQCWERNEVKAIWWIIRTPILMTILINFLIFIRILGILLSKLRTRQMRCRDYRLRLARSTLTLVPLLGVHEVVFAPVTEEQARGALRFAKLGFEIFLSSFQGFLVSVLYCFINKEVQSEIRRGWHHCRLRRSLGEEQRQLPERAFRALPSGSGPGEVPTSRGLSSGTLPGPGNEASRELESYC
How it was run: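 Ki values are geometric means (SEM, n independent days), derived from four-parameter nonlinear regression of IC50. Membranes came from hGIPR-expressing CHO cells.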

T1 sequence (P43220 24-463): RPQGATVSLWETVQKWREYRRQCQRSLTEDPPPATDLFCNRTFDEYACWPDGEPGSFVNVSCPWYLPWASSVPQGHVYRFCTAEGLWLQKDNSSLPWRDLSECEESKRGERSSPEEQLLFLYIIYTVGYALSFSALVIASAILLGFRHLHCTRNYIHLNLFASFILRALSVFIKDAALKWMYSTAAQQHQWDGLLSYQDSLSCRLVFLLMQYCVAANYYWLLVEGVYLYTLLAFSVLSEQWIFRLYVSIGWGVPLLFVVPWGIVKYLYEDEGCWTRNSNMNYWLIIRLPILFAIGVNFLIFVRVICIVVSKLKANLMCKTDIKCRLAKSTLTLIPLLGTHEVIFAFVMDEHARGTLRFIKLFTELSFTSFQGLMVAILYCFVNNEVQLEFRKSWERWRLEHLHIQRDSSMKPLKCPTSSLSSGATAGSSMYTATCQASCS

`CC[C@H](C)[C@H](NC(=O)[C@H](Cc1ccccc1)NC(=O)[C@@H](NC(=O)CNC(=O)[C@H](CCC(=O)O)NC(=O)C(C)(C)NC(=O)[C@@H](N)Cc1ccc(O)cc1)[C@@H](C)O)C(=O)N[C@@H](CO)C(=O)N[C@@H](CC(=O)O)C(=O)N[C@@H](Cc1ccc(O)cc1)C(=O)N[C@@H](CO)C(=O)N[C@H](C(=O)N[C@@](C)(CC(C)C)C(=O)N[C@@H](CC(C)C)C(=O)N[C@@H](CC(=O)O)C(=O)N[C@@H](CCCCN)C(=O)N[C@@H](CCCCNC(=O)COCCOCCNC(=O)COCCOCCNC(=O)CC[C@H](NC(=O)CCCCCCCCCCCCCCCCC(=O)O)C(=O)O)C(=O)N[C@@H](Cc1c[nH]cn1)C(=O)N[C@@H](CCC(N)=O)C(=O)NC(C)(C)C(=O)N[C@@H](CC(=O)O)C(=O)N[C@@H](Cc1ccccc1)C(=O)N[C@H](C(=O)N[C@@H](CCC(=O)O)C(=O)N[C@@H](Cc1ccncc1)C(=O)N[C@@H](CC(C)C)C(=O)N[C@@H](CC(C)C)C(=O)N[C@@H](C)C(=O)NCC(=O)NCC(=O)N1CCC[C@H]1C(=O)N[C@@H](CO)C(=O)N[C@@H](CO)C(=O)NCC(=O)N[C@@H](C)C(=O)N1CCC[C@H]1C(=O)N1CCC[C@H]1C(=O)N1CCC[C@H]1C(=O)N[C@@H](CO)C(N)=O)C(C)C)[C@@H](C)CC` [Example 49] gave a Ki [1] of 596 nM and a Ki [2] of 0.0512 nM.
`CC[C@H](C)[C@H](NC(=O)[C@H](CO)NC(=O)[C@H](Cc1ccc(O)cc1)NC(=O)[C@H](CC(=O)O)NC(=O)[C@H](CO)NC(=O)[C@@H](NC(=O)[C@](C)(Cc1ccccc1F)NC(=O)[C@@H](NC(=O)CNC(=O)[C@H](CCC(=O)O)NC(=O)C(C)(C)NC(=O)[C@@H](N)Cc1ccc(O)cc1)[C@@H](C)O)[C@@H](C)CC)C(=O)N[C@@H](C)C(=O)N[C@@H](CC(C)C)C(=O)N[C@@H](CC(=O)O)C(=O)N[C@@H](CCCCN)C(=O)N[C@@H](CCCCNC(=O)COCCOCCNC(=O)COCCOCCNC(=O)CC[C@H](NC(=O)CCCCCCCCCCCCCCCCCCC(=O)O)C(=O)O)C(=O)N[C@@H](Cc1c[nH]cn1)C(=O)N[C@@H](CCC(N)=O)C(=O)NC(C)(C)C(=O)N[C@@H](CC(=O)O)C(=O)N[C@@H](Cc1ccccc1)C(=O)N[C@H](C(=O)N[C@@H](CCC(=O)O)C(=O)N[C@@H](Cc1c[nH]c2ccccc12)C(=O)N[C@@H](CC(C)C)C(=O)N[C@@H](CC(C)C)C(=O)N[C@@H](CCC(=O)O)C(=O)N[C@H](C(=O)NCC(=O)N1CCC[C@H]1C(=O)N[C@@H](CO)C(=O)N[C@@H](CO)C(=O)NCC(=O)N[C@@H](C)C(=O)N1CCC[C@H]1C(=O)N1CCC[C@H]1C(=O)N1CCC[C@H]1C(=O)N[C@@H](CO)C(N)=O)[C@@H](C)O)C(C)C` [Example 40] (H-Y[Aib]EGT[αMePhe(2-F)]ISDYSIALDKK([AEEA-AEEA-γGlu-C20 diacid])HQ[Aib]DFVEWLLETGPSSGAPPPS-NH2) gave a Ki [1] of 302 nM and a Ki [2] of 0.0594 nM.
`CC[C@H](C)[C@H](NC(=O)[C@H](Cc1ccccc1)NC(=O)[C@@H](NC(=O)CNC(=O)[C@H](CCC(=O)O)NC(=O)C(C)(C)NC(=O)[C@@H](N)Cc1ccc(O)cc1)[C@@H](C)O)C(=O)N[C@@H](CO)C(=O)N[C@@H](CC(=O)O)C(=O)N[C@@H](Cc1ccc(O)cc1)C(=O)N[C@@H](CO)C(=O)N[C@H](C(=O)N[C@@](C)(CC(C)C)C(=O)N[C@@H](CC(C)C)C(=O)N[C@@H](CC(=O)O)C(=O)N[C@@H](CCCCN)C(=O)N[C@@H](CCCCNC(=O)COCCOCCNC(=O)COCCOCCNC(=O)CC[C@H](NC(=O)CCCCCCCCCCCCCCCCCCC(=O)O)C(=O)O)C(=O)N[C@@H](Cc1c[nH]cn1)C(=O)N[C@@H](CCC(N)=O)C(=O)NC(C)(C)C(=O)N[C@@H](CCC(=O)O)C(=O)N[C@@H](Cc1ccccc1)C(=O)N[C@H](C(=O)N[C@@H](CCC(=O)O)C(=O)N[C@@H](Cc1ccncc1)C(=O)N[C@@H](CC(C)C)C(=O)N[C@@H](CC(C)C)C(=O)N[C@@H](C)C(=O)N[C@@H](C)C(=O)NCC(=O)N1CCC[C@H]1C(=O)N[C@@H](CO)C(=O)N[C@@H](CO)C(=O)NCC(=O)N[C@@H](C)C(=O)N1CCC[C@H]1C(=O)N1CCC[C@H]1C(=O)N1CCC[C@H]1C(=O)N[C@@H](CO)C(N)=O)C(C)C)[C@@H](C)CC` [Example 59] gave a Ki [1] of 109 nM and a Ki [2] of 0.0148 nM.
For `CC[C@H](C)[C@H](NC(=O)[C@H](Cc1ccccc1)NC(=O)[C@@H](NC(=O)CNC(=O)[C@H](CCC(=O)O)NC(=O)C(C)(C)NC(=O)[C@@H](N)Cc1ccc(O)cc1)[C@@H](C)O)C(=O)N[C@@H](CO)C(=O)N[C@@H](CC(=O)O)C(=O)N[C@@H](Cc1ccc(O)cc1)C(=O)N[C@@H](CO)C(=O)N[C@H](C(=O)N[C@@](C)(CC(C)C)C(=O)N[C@@H](CC(C)C)C(=O)N[C@@H](CC(=O)O)C(=O)N[C@@H](CCCCN)C(=O)N[C@@H](CCCCNC(=O)COCCOCCNC(=O)COCCOCCNC(=O)CC[C@H](NC(=O)CCCCCCCCCCCCCCCCCCC(=O)O)C(=O)O)C(=O)N[C@@H](Cc1c[nH]cn1)C(=O)N[C@@H](CCC(N)=O)C(=O)NC(C)(C)C(=O)N[C@@H](CC(=O)O)C(=O)N[C@@H](Cc1ccccc1)C(=O)N[C@H](C(=O)N[C@@H](CCC(=O)O)C(=O)N[C@@H](Cc1ccncc1)C(=O)N[C@@H](CC(C)C)C(=O)N[C@@H](CC(C)C)C(=O)N[C@@H](C)C(=O)NCC(=O)NCC(=O)N1CCC[C@H]1C(=O)N[C@@H](CO)C(=O)N[C@@H](CO)C(=O)NCC(=O)N[C@@H](C)C(=O)N1CCC[C@H]1C(=O)N1CCC[C@H]1C(=O)N1CCC[C@H]1C(=O)N[C@@H](CO)C(N)=O)C(C)C)[C@@H](C)CC` [Example 48], the Ki [1] was 211 nM and the Ki [2] was 0.0498 nM.
With `CC[C@H](C)[C@H](NC(=O)[C@H](CO)NC(=O)[C@H](Cc1ccc(O)cc1)NC(=O)[C@H](CC(=O)O)NC(=O)[C@H](CO)NC(=O)[C@@H](NC(=O)[C@](C)(Cc1ccccc1F)NC(=O)[C@@H](NC(=O)CNC(=O)[C@H](CCC(=O)O)NC(=O)C(C)(C)NC(=O)[C@@H](N)Cc1ccc(O)cc1)[C@@H](C)O)[C@@H](C)CC)C(=O)N[C@@H](C)C(=O)N[C@@H](CC(C)C)C(=O)N[C@@H](CC(=O)O)C(=O)N[C@@H](CCCCN)C(=O)N[C@@H](CCCCNC(=O)COCCOCCNC(=O)COCCOCCNC(=O)CC[C@H](NC(=O)CCCCCCCCCCCCCCCCCCC(=O)O)C(=O)O)C(=O)N[C@@H](Cc1c[nH]cn1)C(=O)N[C@@H](CCC(N)=O)C(=O)NC(C)(C)C(=O)N[C@@H](CC(=O)O)C(=O)N[C@@H](Cc1ccccc1)C(=O)N[C@H](C(=O)N[C@@H](CCC(=O)O)C(=O)N[C@@H](Cc1ccncc1)C(=O)N[C@@H](CC(C)C)C(=O)N[C@@H](CC(C)C)C(=O)N[C@@H](CCC(=O)O)C(=O)NCC(=O)NCC(=O)N1CCC[C@H]1C(=O)N[C@@H](CO)C(=O)N[C@@H](CO)C(=O)NCC(=O)N[C@@H](C)C(=O)N1CCC[C@H]1C(=O)N1CCC[C@H]1C(=O)N1CCC[C@H]1C(=O)N[C@@H](CO)C(N)=O)C(C)C` [Example 39] (H-Y[Aib]EGT[αMePhe(2-F)]ISDYSIALDKK([AEEA-AEEA-γGlu-C20 diacid])HQ[Aib]DFVE[4Pal]LLEGGPSSGAPPPS-NH2) the Ki [1] was 235 nM and the Ki [2] was 0.0444 nM.
`CC[C@H](C)[C@H](NC(=O)[C@H](CO)NC(=O)[C@H](Cc1ccc(O)cc1)NC(=O)[C@H](CC(=O)O)NC(=O)[C@H](CO)NC(=O)[C@@H](NC(=O)[C@](C)(Cc1ccccc1)NC(=O)[C@@H](NC(=O)CNC(=O)[C@H](CCC(=O)O)NC(=O)C(C)(C)NC(=O)[C@@H](N)Cc1ccc(O)cc1)[C@@H](C)O)[C@@H](C)CC)C(=O)N[C@@](C)(CC(C)C)C(=O)N[C@@H](CC(C)C)C(=O)N[C@@H](CC(=O)O)C(=O)N[C@@H](CCCCN)C(=O)N[C@@H](CCCCNC(=O)COCCOCCNC(=O)COCCOCCNC(=O)CC[C@H](NC(=O)CCCCCCCCCCCCCCCCCCC(=O)O)C(=O)O)C(=O)N[C@@H](Cc1c[nH]cn1)C(=O)N[C@@H](CCC(N)=O)C(=O)NC(C)(C)C(=O)N[C@@H](CCC(=O)O)C(=O)N[C@@H](Cc1ccccc1)C(=O)N[C@H](C(=O)N[C@@H](CCC(=O)O)C(=O)N[C@@H](Cc1ccncc1)C(=O)N[C@@H](CC(C)C)C(=O)N[C@@H](CC(C)C)C(=O)N[C@@H](C)C(=O)N[C@@H](CCC(N)=O)C(=O)NCC(=O)N1CCC[C@H]1C(=O)N[C@@H](CO)C(=O)N[C@@H](CO)C(=O)NCC(=O)N[C@@H](C)C(=O)N1CCC[C@H]1C(=O)N1CCC[C@H]1C(=O)N1CCC[C@H]1C(=O)N[C@@H](CO)C(N)=O)C(C)C` [Example 60] (H-Y[Aib]EGT[αMeF]ISDYSI[αMeL]LDKK([AEEA-AEEA-γGlu-C20 diacid])HQ[Aib]EFVE[4Pal]LLAQGPSSGAPPPS-NH2) gave a Ki [1] of 51.4 nM and a Ki [2] of 0.039 nM.
